Test results from ChEMBL document CHEMBL5113525, “Discovery of the Novel 1H-Pyrrolo[2,3-b]pyridine Derivative as a Potent Type II CDK8 Inhibitor against Colorectal Cancer” (J Med Chem, 2022).
The source made the active and inactive calls. The rule behind the calls is not given here.

How the values were obtained:
[1] = target: Serine/threonine-protein kinase PAK 1 (Homo sapiens) (UniProt Q13153); test: Inhibition of human PAK1 at 1 uM relative to control
[2] = MRT in Sprague-Dawley rat at 10 mg/kg, po measured upto 12 hrs by LC-MS/MS analysis; format: ADME, organism-based; conditions: in vivo
[3] = target: Mitogen-activated protein kinase 8 (Homo sapiens) (UniProt P45983); test: Inhibition of human JNK1-alpha-2 at 1 uM relative to control
Mitogen-activated protein kinase 8 (Homo sapiens), sequence (P45983 whole entry): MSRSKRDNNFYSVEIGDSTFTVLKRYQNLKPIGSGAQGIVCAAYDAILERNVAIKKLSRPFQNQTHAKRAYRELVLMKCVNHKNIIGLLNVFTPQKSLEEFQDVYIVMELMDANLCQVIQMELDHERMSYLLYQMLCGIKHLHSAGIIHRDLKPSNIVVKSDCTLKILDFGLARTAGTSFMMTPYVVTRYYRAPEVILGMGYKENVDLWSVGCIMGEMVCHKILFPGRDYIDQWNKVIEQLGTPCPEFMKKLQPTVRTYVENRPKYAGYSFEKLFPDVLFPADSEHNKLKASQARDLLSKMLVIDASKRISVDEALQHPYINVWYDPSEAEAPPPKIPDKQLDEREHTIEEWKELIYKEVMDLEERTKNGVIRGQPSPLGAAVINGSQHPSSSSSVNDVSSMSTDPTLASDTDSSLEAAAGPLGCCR

[4] = MRT in Sprague-Dawley rat at 5 mg/kg, iv measured upto 12 hrs by LC-MS/MS analysis; format: ADME, organism-based; conditions: in vivo
[5] = target: Mitogen-activated protein kinase kinase kinase 9 (Homo sapiens) (UniProt P80192); test: Inhibition of human MLK1 at 1 uM relative to control
[6] = target: Receptor-type tyrosine-protein kinase FLT3 (Homo sapiens) (UniProt P36888); test: Inhibition of human FLT3 at 1 uM relative to control
[7] = target: Mitogen-activated protein kinase kinase kinase 11 (Homo sapiens) (UniProt Q16584); test: Inhibition of human MLK3 at 1 uM relative to control
Mitogen-activated protein kinase kinase kinase 11 (Homo sapiens), sequence (Q16584 whole entry, looked up, the tested form may be a part): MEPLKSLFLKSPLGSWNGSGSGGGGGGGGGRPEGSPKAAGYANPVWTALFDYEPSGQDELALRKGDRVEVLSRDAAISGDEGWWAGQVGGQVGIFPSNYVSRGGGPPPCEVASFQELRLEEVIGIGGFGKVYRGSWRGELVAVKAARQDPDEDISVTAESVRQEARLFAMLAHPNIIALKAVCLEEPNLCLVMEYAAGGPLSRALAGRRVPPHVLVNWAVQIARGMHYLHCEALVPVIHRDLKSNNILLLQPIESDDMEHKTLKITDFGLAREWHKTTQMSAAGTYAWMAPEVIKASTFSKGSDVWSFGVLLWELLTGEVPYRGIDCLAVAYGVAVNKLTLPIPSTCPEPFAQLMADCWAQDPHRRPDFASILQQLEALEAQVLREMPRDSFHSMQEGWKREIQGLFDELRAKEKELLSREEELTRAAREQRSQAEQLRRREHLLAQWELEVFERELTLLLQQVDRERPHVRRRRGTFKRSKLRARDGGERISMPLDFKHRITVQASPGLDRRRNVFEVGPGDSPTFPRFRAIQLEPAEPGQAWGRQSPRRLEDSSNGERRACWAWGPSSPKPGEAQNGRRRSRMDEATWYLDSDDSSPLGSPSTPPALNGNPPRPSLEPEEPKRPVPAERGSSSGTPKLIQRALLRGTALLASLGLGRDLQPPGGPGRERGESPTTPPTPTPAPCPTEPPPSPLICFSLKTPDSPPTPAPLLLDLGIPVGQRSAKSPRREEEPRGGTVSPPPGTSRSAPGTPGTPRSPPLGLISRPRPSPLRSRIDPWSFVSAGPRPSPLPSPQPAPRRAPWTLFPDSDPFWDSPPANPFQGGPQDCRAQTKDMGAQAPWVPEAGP

[8] = target: Phosphatidylinositol 4-phosphate 3-kinase C2 domain-containing subunit alpha (Homo sapiens) (UniProt O00443); test: Inhibition of human PI3K-C2-alpha at 1 uM relative to control
[9] = target: Tyrosine-protein kinase JAK2 (Homo sapiens) (UniProt O60674); test: Inhibition of human JAK2 at 1 uM relative to control
[10] = Cmax in Sprague-Dawley rat at 5 mg/kg, iv measured upto 12 hrs by LC-MS/MS analysis; format: ADME, organism-based; design: dose 5 mg/kg, time < 12 hrs, route iv; conditions: in vivo
[11] = target: Serine/threonine-protein kinase B-raf (Homo sapiens) (UniProt P15056); test: Inhibition of human BRAF at 1 uM relative to control
[12] = Half life in Sprague-Dawley rat at 10 mg/kg, po measured upto 12 hrs by LC-MS/MS analysis; format: ADME, organism-based; conditions: in vivo
[13] = target: Fibroblast growth factor receptor 3 (Homo sapiens) (UniProt P22607); test: Inhibition of human FGFR3 at 1 uM relative to control
[14] = AUC(0 to infinity) in Sprague-Dawley rat at 5 mg/kg, iv measured upto 12 hrs by LC-MS/MS analysis; format: ADME, organism-based; design: time < 12 hrs, dose 5 mg/kg, route iv; conditions: in vivo
[15] = target: Tyrosine-protein kinase Lck (Homo sapiens) (UniProt P06239); test: Inhibition of human LCK at 1 uM relative to control
[16] = Cmax in Sprague-Dawley rat at 10 mg/kg, po measured upto 12 hrs by LC-MS/MS analysis; format: ADME, organism-based; design: time < 12 hrs, dose 10 mg/kg, route po; conditions: in vivo
[17] = target: Dual specificity protein kinase CLK4 (Homo sapiens) (UniProt Q9HAZ1); test: Inhibition of human CLK4 at 1 uM relative to control
[18] = Tmax in Sprague-Dawley rat at 10 mg/kg, po measured upto 12 hrs by LC-MS/MS analysis; format: ADME, organism-based; conditions: in vivo
[19] = target: Tyrosine-protein kinase receptor UFO (Homo sapiens) (UniProt P30530); test: Inhibition of human AXL at 1 uM relative to control
[20] = Clearance in Sprague-Dawley rat at 10 mg/kg, po measured upto 12 hrs by LC-MS/MS analysis; format: ADME, organism-based; conditions: in vivo
[21] = target: Serine/threonine-protein kinase mTOR (Homo sapiens) (UniProt P42345); test: Inhibition of human MTOR at 1 uM relative to control
[22] = target: Serine/threonine-protein kinase pim-1 (Homo sapiens) (UniProt P11309); test: Inhibition of human PIM1 at 1 uM relative to control
Serine/threonine-protein kinase pim-1 (Homo sapiens), sequence (P11309 whole entry, looked up): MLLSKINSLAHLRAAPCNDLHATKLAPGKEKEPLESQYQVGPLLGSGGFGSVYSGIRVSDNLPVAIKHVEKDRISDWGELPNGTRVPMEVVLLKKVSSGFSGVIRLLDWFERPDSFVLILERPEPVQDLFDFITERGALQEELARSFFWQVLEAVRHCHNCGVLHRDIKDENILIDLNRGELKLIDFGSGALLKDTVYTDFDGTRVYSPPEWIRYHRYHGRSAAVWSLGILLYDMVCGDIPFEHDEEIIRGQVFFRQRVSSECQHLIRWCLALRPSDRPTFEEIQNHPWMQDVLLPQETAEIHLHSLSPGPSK

[23] = target: Vascular endothelial growth factor receptor 1 (Homo sapiens) (UniProt P17948); test: Inhibition of human FLT1 at 1 uM relative to control
[24] = target: Aurora kinase C (Homo sapiens) (UniProt Q9UQB9); test: Inhibition of human Aurora C at 1 uM relative to control
[25] = target: Cyclin-dependent kinase 5/CDK5 activator 1 (Homo sapiens) (UniProt Q00535+Q15078); test: Inhibition of human CDK5/p35 at 1 uM relative to control; format: protein-complex assay
[26] = target: 3-phosphoinositide-dependent protein kinase 1 (Homo sapiens) (UniProt O15530); test: Inhibition of human PDK1 at 1 uM relative to control
[27] = target: Discoidin domain-containing receptor 2 (Homo sapiens) (UniProt Q16832); test: Inhibition of human DDR2 at 1 uM relative to control
[28] = target: Serine/threonine-protein kinase pim-2 (Homo sapiens) (UniProt Q9P1W9); test: Inhibition of human PIM2 at 1 uM relative to control
Serine/threonine-protein kinase pim-2 (Homo sapiens), sequence (Q9P1W9 whole entry, looked up): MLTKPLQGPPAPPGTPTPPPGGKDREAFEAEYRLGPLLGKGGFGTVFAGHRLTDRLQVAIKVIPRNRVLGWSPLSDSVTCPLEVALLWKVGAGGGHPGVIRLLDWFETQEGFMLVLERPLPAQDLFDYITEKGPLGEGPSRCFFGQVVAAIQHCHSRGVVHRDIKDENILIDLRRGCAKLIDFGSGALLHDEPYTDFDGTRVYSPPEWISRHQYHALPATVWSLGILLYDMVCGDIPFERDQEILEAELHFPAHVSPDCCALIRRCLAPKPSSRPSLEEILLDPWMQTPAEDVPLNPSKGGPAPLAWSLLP

[29] = target: Citron Rho-interacting kinase (Homo sapiens) (UniProt O14578); test: Inhibition of human CRIK at 1 uM relative to control
Citron Rho-interacting kinase (Homo sapiens), sequence (O14578 whole entry): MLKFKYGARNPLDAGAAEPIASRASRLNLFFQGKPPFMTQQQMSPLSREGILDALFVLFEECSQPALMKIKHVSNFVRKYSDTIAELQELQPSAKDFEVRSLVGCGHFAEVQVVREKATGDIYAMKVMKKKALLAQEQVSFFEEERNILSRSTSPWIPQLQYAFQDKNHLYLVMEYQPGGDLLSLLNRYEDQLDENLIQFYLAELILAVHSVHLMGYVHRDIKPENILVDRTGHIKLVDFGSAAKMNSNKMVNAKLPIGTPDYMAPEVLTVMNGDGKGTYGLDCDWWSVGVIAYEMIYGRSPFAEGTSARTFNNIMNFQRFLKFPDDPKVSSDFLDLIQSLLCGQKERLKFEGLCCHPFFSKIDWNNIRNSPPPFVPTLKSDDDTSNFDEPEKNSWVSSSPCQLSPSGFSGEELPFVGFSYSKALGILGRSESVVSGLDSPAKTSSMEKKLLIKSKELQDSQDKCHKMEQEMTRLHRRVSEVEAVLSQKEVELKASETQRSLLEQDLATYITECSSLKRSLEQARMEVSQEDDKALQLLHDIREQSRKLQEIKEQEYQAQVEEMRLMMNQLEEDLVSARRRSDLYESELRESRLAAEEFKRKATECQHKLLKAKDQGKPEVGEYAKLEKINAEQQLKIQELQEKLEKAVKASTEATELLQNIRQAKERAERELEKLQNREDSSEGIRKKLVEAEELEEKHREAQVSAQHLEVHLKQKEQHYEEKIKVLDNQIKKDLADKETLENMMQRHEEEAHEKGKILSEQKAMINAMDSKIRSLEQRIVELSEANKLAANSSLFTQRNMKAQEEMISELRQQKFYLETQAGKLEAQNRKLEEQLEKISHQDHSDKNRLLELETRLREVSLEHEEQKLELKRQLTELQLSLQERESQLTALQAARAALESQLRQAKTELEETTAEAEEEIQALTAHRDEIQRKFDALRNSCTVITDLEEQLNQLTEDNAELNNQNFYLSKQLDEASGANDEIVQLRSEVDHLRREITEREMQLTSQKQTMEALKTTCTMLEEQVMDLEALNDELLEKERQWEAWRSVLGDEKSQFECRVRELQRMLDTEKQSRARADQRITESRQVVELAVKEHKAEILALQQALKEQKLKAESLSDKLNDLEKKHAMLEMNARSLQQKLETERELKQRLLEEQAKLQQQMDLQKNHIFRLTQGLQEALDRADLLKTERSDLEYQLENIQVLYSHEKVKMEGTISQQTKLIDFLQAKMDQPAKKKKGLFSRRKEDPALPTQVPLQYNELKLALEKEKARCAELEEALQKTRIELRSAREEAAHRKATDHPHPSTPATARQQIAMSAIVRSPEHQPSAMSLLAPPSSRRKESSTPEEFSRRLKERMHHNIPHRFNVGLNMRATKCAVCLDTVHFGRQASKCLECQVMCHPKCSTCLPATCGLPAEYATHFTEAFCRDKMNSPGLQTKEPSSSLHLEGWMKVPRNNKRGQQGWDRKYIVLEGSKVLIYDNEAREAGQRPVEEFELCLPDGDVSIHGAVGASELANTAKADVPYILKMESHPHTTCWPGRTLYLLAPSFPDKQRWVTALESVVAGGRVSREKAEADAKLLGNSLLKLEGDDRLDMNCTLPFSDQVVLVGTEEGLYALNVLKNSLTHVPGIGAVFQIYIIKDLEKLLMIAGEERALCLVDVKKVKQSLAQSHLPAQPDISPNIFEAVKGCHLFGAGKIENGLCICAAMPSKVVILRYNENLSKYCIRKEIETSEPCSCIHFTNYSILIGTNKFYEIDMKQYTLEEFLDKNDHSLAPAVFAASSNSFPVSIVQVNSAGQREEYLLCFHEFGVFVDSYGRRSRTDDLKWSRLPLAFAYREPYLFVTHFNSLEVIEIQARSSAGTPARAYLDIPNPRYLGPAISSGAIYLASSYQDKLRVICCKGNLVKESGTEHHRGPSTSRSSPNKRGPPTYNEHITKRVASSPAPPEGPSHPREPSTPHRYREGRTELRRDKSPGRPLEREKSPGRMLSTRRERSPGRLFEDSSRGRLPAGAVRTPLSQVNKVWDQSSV

[30] = target: Dual specificity protein kinase CLK3 (Homo sapiens) (UniProt P49761); test: Inhibition of human CLK3 at 1 uM relative to control
[31] = target: Glycogen synthase kinase-3 alpha (Homo sapiens) (UniProt P49840); test: Inhibition of human GSK3A at 1 uM relative to control
[32] = target: LIM domain kinase 1 (Homo sapiens) (UniProt P53667); test: Inhibition of human LIMK1 at 1 uM relative to control
[33] = target: Mitogen-activated protein kinase 8 (Homo sapiens) (UniProt P45983); test: Inhibition of human JNK1-alpha-1 at 1 uM relative to control
[34] = target: High affinity nerve growth factor receptor (Homo sapiens) (UniProt P04629); test: Inhibition of human TRKA at 1 uM relative to control
[35] = target: Catenin beta-1 (Homo sapiens) (UniProt P35222); test: Inhibition of beta-catenin in human HCT-116 cells assessed as accumulation in cytoplasm incubated for 24 hrs by DAPI staining based immunofluorescence assay; format: cell-based
[36] = target: Tyrosine-protein kinase Lyn (Homo sapiens) (UniProt P07948); test: Inhibition of human LYN at 1 uM relative to control
[37] = target: Hepatocyte growth factor receptor (Homo sapiens) (UniProt P08581); test: Inhibition of human MET at 1 uM relative to control
[38] = Oral bioavailability in Sprague-Dawley rat at 10 mg/kg measured upto 12 hrs by LC-MS/MS analysis; format: ADME, organism-based; conditions: in vivo
[39] = target: Serine/threonine-protein kinase NLK (Homo sapiens) (UniProt Q9UBE8); test: Inhibition of human NLK at 1 uM relative to control
[40] = target: Mitogen-activated protein kinase kinase kinase 10 (Homo sapiens) (UniProt Q02779); test: Inhibition of human MLK2 at 1 uM relative to control
[41] = target: Fibroblast growth factor receptor 1 (Homo sapiens) (UniProt P11362); test: Inhibition of human FGFR1 at 1 uM relative to control
[42] = target: Dual specificity protein kinase CLK2 (Homo sapiens) (UniProt P49760); test: Inhibition of human CLK2 at 1 uM relative to control
[43] = AUC(0 to infinity) in Sprague-Dawley rat at 10 mg/kg, po measured upto 12 hrs by LC-MS/MS analysis; format: ADME, organism-based; design: dose 10 mg/kg, time < 12 hrs, route po; conditions: in vivo
[44] = target: Tyrosine-protein kinase JAK3 (Homo sapiens) (UniProt P52333); test: Inhibition of human JAK3 at 1 uM relative to control
Tyrosine-protein kinase JAK3 (Homo sapiens), sequence (P52333 whole entry): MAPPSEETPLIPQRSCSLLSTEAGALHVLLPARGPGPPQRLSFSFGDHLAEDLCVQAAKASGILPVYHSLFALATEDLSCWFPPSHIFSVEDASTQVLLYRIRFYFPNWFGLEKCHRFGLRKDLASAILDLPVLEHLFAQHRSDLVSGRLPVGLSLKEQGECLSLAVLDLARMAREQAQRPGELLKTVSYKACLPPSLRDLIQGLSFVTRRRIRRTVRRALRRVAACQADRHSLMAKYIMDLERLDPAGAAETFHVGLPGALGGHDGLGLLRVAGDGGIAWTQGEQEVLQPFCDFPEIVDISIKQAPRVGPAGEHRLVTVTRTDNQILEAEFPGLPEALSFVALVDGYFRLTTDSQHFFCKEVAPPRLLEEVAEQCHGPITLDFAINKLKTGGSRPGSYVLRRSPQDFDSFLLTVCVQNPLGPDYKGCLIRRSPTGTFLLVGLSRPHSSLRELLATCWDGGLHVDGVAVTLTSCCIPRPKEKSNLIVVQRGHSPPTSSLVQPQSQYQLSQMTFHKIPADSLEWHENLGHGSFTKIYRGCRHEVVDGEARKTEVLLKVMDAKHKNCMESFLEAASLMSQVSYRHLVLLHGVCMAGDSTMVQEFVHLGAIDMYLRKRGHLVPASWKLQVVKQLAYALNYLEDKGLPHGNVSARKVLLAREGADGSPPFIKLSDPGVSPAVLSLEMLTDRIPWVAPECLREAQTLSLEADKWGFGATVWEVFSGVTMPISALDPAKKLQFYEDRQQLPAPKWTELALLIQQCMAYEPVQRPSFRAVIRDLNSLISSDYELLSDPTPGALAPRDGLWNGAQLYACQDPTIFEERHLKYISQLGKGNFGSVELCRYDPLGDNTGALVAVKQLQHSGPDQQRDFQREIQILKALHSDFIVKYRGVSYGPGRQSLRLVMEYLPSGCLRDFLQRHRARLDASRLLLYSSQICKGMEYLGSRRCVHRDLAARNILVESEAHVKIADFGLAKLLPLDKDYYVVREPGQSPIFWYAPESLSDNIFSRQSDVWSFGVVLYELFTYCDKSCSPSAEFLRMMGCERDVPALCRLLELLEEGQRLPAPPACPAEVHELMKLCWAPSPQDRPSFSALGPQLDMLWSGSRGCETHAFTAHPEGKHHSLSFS

inhibition [1]: 0%
MRT [2]: 2.02 h
inhibition [3]: 0%
MRT [4]: 1.76 h
inhibition [5]: 7%
inhibition [6]: 48%
inhibition [7]: 0%
inhibition [8]: 1%
inhibition [9]: 10%
Cmax [10]: 706 ng/mL
inhibition [11]: 15%
half-life [12]: 1.21 h
inhibition [13]: 0%
AUC [14]: 983.09 ng·h/mL
inhibition [15]: 0%
Cmax [16]: 498 ng/mL
inhibition [17]: 6%
Tmax [18]: 0.75 h
inhibition [19]: 38%
CL/F [20]: 154 mL/min/kg
inhibition [21]: 5%
inhibition [22]: 0%
inhibition [23]: 1%
inhibition [24]: 8%
inhibition [25]: 0%
inhibition [26]: 0%
inhibition [27]: 23%
inhibition [28]: 0%
inhibition [29]: 1%
inhibition [30]: 2%
inhibition [31]: 6%
inhibition [32]: 6%
inhibition [33]: 2%
inhibition [34]: 25%
inhibition [35]: Active
inhibition [36]: 0%
inhibition [37]: 0%
bioavailability [38]: 39.8%
inhibition [39]: 0%
inhibition [40]: 5%
inhibition [41]: 0%
inhibition [42]: 9%
AUC(0-inf) [43]: 784 ng·h/mL
inhibition [44]: 10%
Structure (SMILES): Cc1ccc(NC(=O)CCc2cccc(-c3cnc4[nH]ccc4c3)c2)cc1C(F)(F)F
